Experimental data from PubChem BioAssay (NCI).
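At the GI50, growth is halved. TGI is the concentration that stops growth completely.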

How the values were obtained:
Test in all cases: NCI-60 cell line screen, 384-well format
NCI-H322M lung = system: NCI-H322M lung
ACHN renal = system: ACHN renal
M14 melanoma = system: M14 melanoma
EKVX NSCLC = system: EKVX NSCLC
SF-295 CNS = system: SF-295 CNS
MDA-MB-468 breast = system: MDA-MB-468 breast
SF-539 CNS = system: SF-539 CNS
SN12C renal = system: SN12C renal
U251 glioblastoma = system: U251 glioblastoma
HOP-92 NSCLC = system: HOP-92 NSCLC
OVCAR-3 ovarian = system: OVCAR-3 ovarian
HL-60(TB) leukemia = system: HL-60(TB) leukemia
NCI-H23 lung = system: NCI-H23 lung
MDA-MB-435 melanoma = system: MDA-MB-435 melanoma
TK-10 renal = system: TK-10 renal
HCT-116 colon = system: HCT-116 colon
786-0 renal = system: 786-0 renal
NCI-H522 lung = system: NCI-H522 lung
COLO 205 colon = system: COLO 205 colon
SW-620 colon = system: SW-620 colon
KM12 colon = system: KM12 colon
OVCAR-8 ovarian = system: OVCAR-8 ovarian
HCT-15 colon = system: HCT-15 colon
OVCAR-5 ovarian = system: OVCAR-5 ovarian
HS 578T breast = system: HS 578T breast
NCI-H226 lung = system: NCI-H226 lung
OVCAR-4 ovarian = system: OVCAR-4 ovarian
HOP-62 NSCLC = system: HOP-62 NSCLC
CAKI-1 renal = system: CAKI-1 renal
PC-3 prostate = system: PC-3 prostate
HT29 colon = system: HT29 colon
SF-268 CNS = system: SF-268 CNS
UACC-257 melanoma = system: UACC-257 melanoma
MCF7 breast = system: MCF7 breast
MDA-MB-231 breast = system: MDA-MB-231 breast
K-562 leukemia = system: K-562 leukemia
SK-MEL-28 melanoma = system: SK-MEL-28 melanoma
A498 renal = system: A498 renal
T-47D breast = system: T-47D breast
SR leukemia = system: SR leukemia
MOLT-4 leukemia = system: MOLT-4 leukemia
SK-MEL-2 melanoma = system: SK-MEL-2 melanoma
UACC-62 melanoma = system: UACC-62 melanoma
MALME-3M melanoma = system: MALME-3M melanoma
SK-MEL-5 melanoma = system: SK-MEL-5 melanoma
IGROV1 ovarian = system: IGROV1 ovarian
RXF 393 renal = system: RXF 393 renal
DU-145 prostate = system: DU-145 prostate
SNB-19 CNS = system: SNB-19 CNS
SNB-75 CNS = system: SNB-75 CNS
A549 NSCLC = system: A549 NSCLC
NCI-H460 NSCLC = system: NCI-H460 NSCLC
BT-549 breast = system: BT-549 breast
UO-31 renal = system: UO-31 renal

SMILES: COc1cc(C(=O)O)ccc1NC(=O)[C@@H]1N[C@@H](CC(C)(C)C)[C@](C#N)(c2ccc(Cl)cc2F)[C@H]1c1cccc(Cl)c1F
- GI50 (NCI-H322M lung): 10.3 µM
- TGI (NCI-H322M lung): 22 µM
- GI50 (ACHN renal): 0.03 µM
- TGI (ACHN renal): 1.49 µM
- GI50 (M14 melanoma): 1.98 µM
- TGI (M14 melanoma): 11.2 µM
- GI50 (EKVX NSCLC): 5.88 µM
- GI50 (SF-295 CNS): 3.77 µM
- GI50 (MDA-MB-468 breast): 3.79 µM
- GI50 (SF-539 CNS): 3.09 µM
- TGI (SF-539 CNS): 11.6 µM
- GI50 (SN12C renal): 4.7 µM
- TGI (SN12C renal): 15.9 µM
- GI50 (U251 glioblastoma): 3.68 µM
- GI50 (HOP-92 NSCLC): 1.94 µM
- TGI (HOP-92 NSCLC): 4.35 µM
- GI50 (OVCAR-3 ovarian): 2.35 µM
- TGI (OVCAR-3 ovarian): 5.27 µM
- GI50 (HL-60(TB) leukemia): 2.07 µM
- TGI (HL-60(TB) leukemia): 3.51 µM
- GI50 (NCI-H23 lung): 4.77 µM
- GI50 (MDA-MB-435 melanoma): 3.71 µM
- TGI (MDA-MB-435 melanoma): 12.2 µM
- GI50 (TK-10 renal): 5.05 µM
- TGI (TK-10 renal): 16.6 µM
- GI50 (HCT-116 colon): 0.0526 µM
- TGI (HCT-116 colon): 1.85 µM
- GI50 ([…]-0 renal): 3.54 µM
- TGI (786-0 renal): 13.7 µM
- GI50 (NCI-H522 lung): 3.74 µM
- TGI (NCI-H522 lung): 10.9 µM
- GI50 (COLO 205 colon): 5.06 µM
- TGI (COLO 205 colon): 18.1 µM
- GI50 (SW-620 colon): 4.53 µM
- TGI (SW-620 colon): 14.2 µM
- GI50 (KM12 colon): 0.0634 µM
- TGI (KM12 colon): 1.38 µM
- GI50 (OVCAR-8 ovarian): 4.65 µM
- GI50 (HCT-15 colon): 3.51 µM
- GI50 (OVCAR-5 ovarian): 8.12 µM
- TGI (OVCAR-5 ovarian): 20.2 µM
- GI50 (HS 578T breast): 3.75 µM
- TGI (HS 578T breast): 11.9 µM
- GI50 (NCI-H226 lung): 0.0202 µM
- TGI (NCI-H226 lung): 0.128 µM
- GI50 (OVCAR-4 ovarian): 5.83 µM
- TGI (OVCAR-4 ovarian): 18.3 µM
- GI50 (HOP-62 NSCLC): 8.06 µM
- GI50 (CAKI-1 renal): 0.0193 µM
- TGI (CAKI-1 renal): 13.7 µM
- GI50 (PC-3 prostate): 4.32 µM
- TGI (PC-3 prostate): 14.2 µM
- GI50 (HT29 colon): 4.23 µM
- TGI (HT29 colon): 13.1 µM
- GI50 (SF-268 CNS): 3.87 µM
- TGI (SF-268 CNS): 12.5 µM
- GI50 (UACC-257 melanoma): 0.228 µM
- TGI (UACC-257 melanoma): 0.657 µM
- GI50 (MCF7 breast): 0.0339 µM
- TGI (MCF7 breast): 1.04 µM
- GI50 (MDA-MB-231 breast): 3.48 µM
- TGI (MDA-MB-231 breast): 12 µM
- GI50 (K-562 leukemia): 4.19 µM
- TGI (K-562 leukemia): 13.9 µM
- GI50 (SK-MEL-28 melanoma): 2.73 µM
- TGI (SK-MEL-28 melanoma): 6.12 µM
- GI50 (A498 renal): 0.0406 µM
- TGI (A498 renal): 4.26 µM
- GI50 (T-47D breast): 3.16 µM
- GI50 (SR leukemia): < 0.01 µM
- TGI (SR leukemia): 0.0122 µM
- GI50 (MOLT-4 leukemia): < 0.01 µM
- TGI (MOLT-4 leukemia): 0.0195 µM
- GI50 (SK-MEL-2 melanoma): 2.69 µM
- TGI (SK-MEL-2 melanoma): 6.28 µM
- GI50 (UACC-62 melanoma): < 0.01 µM
- TGI (UACC-62 melanoma): 1.44 µM
- GI50 (MALME-3M melanoma): 0.0869 µM
- TGI (MALME-3M melanoma): 11.9 µM
- GI50 (SK-MEL-5 melanoma): 1.15 µM
- TGI (SK-MEL-5 melanoma): 2.44 µM
- GI50 (IGROV1 ovarian): 2.63 µM
- TGI (IGROV1 ovarian): 13.8 µM
- GI50 (RXF 393 renal): 2.59 µM
- TGI (RXF 393 renal): 5.85 µM
- GI50 (DU-145 prostate): 5.75 µM
- TGI (DU-145 prostate): 17.5 µM
- GI50 (SNB-19 CNS): 4.3 µM
- TGI (SNB-19 CNS): 14.1 µM
- GI50 (SNB-75 CNS): 6.6 µM
- TGI (SNB-75 CNS): 18.7 µM
- GI50 (A549 NSCLC): 0.195 µM
- TGI (A549 NSCLC): 4.76 µM
- GI50 (NCI-H460 NSCLC): 4.31 µM
- TGI (NCI-H460 NSCLC): 14.5 µM
- GI50 (BT-549 breast): 3.03 µM
- TGI (BT-549 breast): 6.21 µM
- GI50 (UO-31 renal): 0.0758 µM
- TGI (UO-31 renal): 0.464 µM
